Results on 16 compounds are retold here after US20140163026A1, “8-ETHYL-6-(ARYL)PYRIDO[2,3-D]PYRIMIDIN-7(8H)-ONES FOR THE TREATMENT OF NERVOUS SYSTEM DISORDERS AND CANCER” (Afraxis Holdings, Inc., priority 2011, published 2014).

pIC50: −log10 of the molar value.

What all share (format): biochemical
In one test the target is PAK1 (Homo sapiens, UniProt Q13153). As to the kind of experiment: In vitro PAK inhibition assay (SelectScreen, Ser/Thr 19 peptide). In short, it runs like this: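 Kinase reaction ran in 50 mM HEPES pH 7.5, 0.01% BRIJ-35, 10 mM MgCl2, 1 mM EGTA with Ser/Thr 19 peptide for 60 min at room temperature, followed by 60 min protease development. Fluorescence gave percent phosphorylation. Compounds were tested as 10-point, 3-fold titrations in 1% DMSO final.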

The target of another test is PAK4 (Homo sapiens, UniProt O96013). As to the kind of experiment: In vitro PAK inhibition assay (SelectScreen, Ser/Thr 20 peptide). In short, it runs like this: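 FRET-based Ser/Thr 20 peptide phosphorylation: 0.1-0.75 ng PAK4, 2 μM peptide in 50 mM HEPES pH 7.5, 10 mM MgCl2, 1 mM EGTA, 0.01% BRIJ-35, 1% DMSO; 60 min at room temperature, then 60 min protease development. 10-point 3-fold titrations; IC50 from sigmoidal fit.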

Another test has as its target PAK3 (Homo sapiens, UniProt O75914). Described as above. In short, it runs like this:
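PAK3 phosphorylation of Ser/Thr 20 peptide in 50 mM HEPES pH 7.5, 0.01% BRIJ-35, 10 mM MgCl2, 1 mM EGTA, 1% DMSO final; 60 min at room temperature, then 60 min development reaction with fluorescence read-out. 10-point 3-fold titrations; percent phosphorylation from 0% and 100% phosphopeptide controls.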

The target in another test is PAK2 (PAK65) (Homo sapiens, UniProt Q13177). Described as above. In short, it runs like this: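 FRET-based peptide cleavage assay: 0.29-6 ng PAK2 and 2 μM Ser/Thr 20 peptide in 50 mM HEPES pH 7.5, 10 mM MgCl2, 1 mM EGTA, 0.01% BRIJ-35, 1% DMSO final. Kinase reaction 60 min at room temperature, then 60 min development; 10-point 3-fold titrations, percent phosphorylation from fluorescence.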
PAK2 (PAK65), sequence (Q13177 whole entry): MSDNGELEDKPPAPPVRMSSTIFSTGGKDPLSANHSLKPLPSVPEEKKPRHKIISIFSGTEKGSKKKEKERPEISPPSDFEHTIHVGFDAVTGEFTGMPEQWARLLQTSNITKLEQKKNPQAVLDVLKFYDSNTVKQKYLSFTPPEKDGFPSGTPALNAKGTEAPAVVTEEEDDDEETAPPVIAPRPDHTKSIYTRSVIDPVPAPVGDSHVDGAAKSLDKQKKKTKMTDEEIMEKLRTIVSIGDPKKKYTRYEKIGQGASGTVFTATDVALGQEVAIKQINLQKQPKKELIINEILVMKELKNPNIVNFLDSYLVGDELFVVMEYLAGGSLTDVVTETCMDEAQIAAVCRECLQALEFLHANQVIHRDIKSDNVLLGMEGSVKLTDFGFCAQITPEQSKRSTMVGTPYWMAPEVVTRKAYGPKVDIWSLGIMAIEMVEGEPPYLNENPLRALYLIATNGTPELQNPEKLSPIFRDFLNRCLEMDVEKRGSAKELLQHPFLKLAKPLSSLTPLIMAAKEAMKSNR

PAK1, sequence (Q13153 whole entry): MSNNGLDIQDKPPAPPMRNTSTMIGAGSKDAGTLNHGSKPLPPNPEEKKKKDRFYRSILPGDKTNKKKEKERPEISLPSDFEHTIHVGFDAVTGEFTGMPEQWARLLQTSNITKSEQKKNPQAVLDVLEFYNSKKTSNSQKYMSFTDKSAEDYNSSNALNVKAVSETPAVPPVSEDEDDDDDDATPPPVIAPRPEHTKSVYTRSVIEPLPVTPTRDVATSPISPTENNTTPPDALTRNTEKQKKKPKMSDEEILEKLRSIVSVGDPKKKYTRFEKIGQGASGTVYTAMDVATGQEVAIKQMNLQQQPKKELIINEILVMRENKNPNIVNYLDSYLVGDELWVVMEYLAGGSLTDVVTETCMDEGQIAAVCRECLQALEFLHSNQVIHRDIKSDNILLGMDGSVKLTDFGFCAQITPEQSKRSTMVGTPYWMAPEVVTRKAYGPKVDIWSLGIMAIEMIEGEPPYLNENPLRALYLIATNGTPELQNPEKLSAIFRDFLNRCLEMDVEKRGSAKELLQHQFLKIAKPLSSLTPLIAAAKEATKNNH
PAK4, sequence (O96013 whole entry): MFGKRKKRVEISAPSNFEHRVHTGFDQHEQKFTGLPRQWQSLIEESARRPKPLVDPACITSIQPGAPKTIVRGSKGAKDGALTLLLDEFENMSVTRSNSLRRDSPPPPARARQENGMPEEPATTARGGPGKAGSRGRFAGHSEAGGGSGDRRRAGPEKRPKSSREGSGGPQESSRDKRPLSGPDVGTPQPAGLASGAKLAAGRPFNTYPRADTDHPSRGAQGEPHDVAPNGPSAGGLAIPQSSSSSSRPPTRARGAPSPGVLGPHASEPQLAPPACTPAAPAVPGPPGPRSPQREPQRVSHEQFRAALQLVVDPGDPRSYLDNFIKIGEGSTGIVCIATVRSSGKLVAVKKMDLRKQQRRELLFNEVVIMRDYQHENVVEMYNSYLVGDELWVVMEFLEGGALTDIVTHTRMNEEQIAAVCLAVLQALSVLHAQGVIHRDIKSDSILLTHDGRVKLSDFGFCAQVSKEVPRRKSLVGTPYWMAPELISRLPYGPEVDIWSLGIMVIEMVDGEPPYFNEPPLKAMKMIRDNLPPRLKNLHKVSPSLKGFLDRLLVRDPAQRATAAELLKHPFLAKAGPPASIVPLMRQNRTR
PAK3, sequence (O75914 whole entry): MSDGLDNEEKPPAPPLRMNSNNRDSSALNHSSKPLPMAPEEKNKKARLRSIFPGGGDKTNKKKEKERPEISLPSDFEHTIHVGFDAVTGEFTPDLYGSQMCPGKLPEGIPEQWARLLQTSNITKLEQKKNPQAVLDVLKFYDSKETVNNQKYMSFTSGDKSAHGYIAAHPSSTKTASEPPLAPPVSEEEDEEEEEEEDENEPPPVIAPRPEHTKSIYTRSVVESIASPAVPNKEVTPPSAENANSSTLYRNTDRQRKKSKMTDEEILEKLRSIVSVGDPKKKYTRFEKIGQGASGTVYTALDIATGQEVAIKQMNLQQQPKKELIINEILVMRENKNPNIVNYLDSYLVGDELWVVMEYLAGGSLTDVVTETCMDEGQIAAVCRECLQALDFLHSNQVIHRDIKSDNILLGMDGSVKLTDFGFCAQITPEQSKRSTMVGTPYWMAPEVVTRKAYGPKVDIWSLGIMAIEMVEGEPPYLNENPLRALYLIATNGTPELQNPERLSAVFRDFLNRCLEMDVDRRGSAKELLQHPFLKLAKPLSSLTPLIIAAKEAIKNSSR

For the compound `CCn1c(=O)c(-c2ccc(C3CC3)cc2)cc2cnc(Nc3ccc(N4CCN(C)CC4)cc3)nc21`, the pIC50 is 6.30 to 7.30 at PAK1, at most 5.30 against PAK4, 5.30 to 6.30 on PAK3 and 5.30 to 6.30 against PAK2 (PAK65).
Regarding `CCn1c(=O)c(-c2ccc(-c3ccoc3)cc2)cc2cnc(Nc3ccc(N4CCN(C)CC4)cc3)nc21`, the pIC50 is 6.30 to 7.30 on PAK1, at most 5.30 against PAK4, under 5.30 at PAK3 and under 5.30 on PAK2 (PAK65).
Regarding `CCn1c(=O)c(-c2ccc(-c3ccc(OC)nc3)cc2)cc2cnc(Nc3ccc(N4CCN(C)CC4)cc3)nc21`, the pIC50 was 6.30 to 7.30 against PAK1, at most 5.30 at PAK4, 6.30 to 7.30 at PAK3 and 6.30 to 7.30 against PAK2 (PAK65).
For the compound `CCn1c(=O)c(-c2nc(C3CCNCC3)sc2C)cc2cnc(Nc3ccc(N4CCN(C)CC4)cc3)nc21`, the pIC50 against PAK1 was 5.30 to 6.30; at PAK4, at most 5.30; against PAK3, under 5.30; against PAK2 (PAK65) it was under 5.30.
`CCn1c(=O)c(-c2ccc(-c3cncnc3)cc2Cl)cc2cnc(Nc3ccc(C4CNCCO4)cc3)nc21` (stereo not shown): the pIC50 at PAK1 was over 7.30; against PAK4 it was 5.30 to 6.30; against PAK3 it was over 7.30; against PAK2 (PAK65), over 7.30.
In the case of `CCn1c(=O)c(-c2nc(C3CCN(C)CC3)sc2C)cc2cnc(Nc3ccc(N4CCN(C)CC4)cc3)nc21`, the pIC50 at PAK1 is under 5.30; at PAK4, at most 5.30; on PAK3, under 5.30; at PAK2 (PAK65), under 5.30.
`CCn1c(=O)c(-c2ccc(-c3ccc(NC(C)=O)nc3)cc2Cl)cc2cnc(Nc3ccc(N4CCN(C)CC4)cc3)nc21`: the pIC50 is under 5.30 on PAK1, at most 5.30 against PAK4, 5.30 to 6.30 against PAK3 and 5.30 to 6.30 against PAK2 (PAK65).
`CCn1c(=O)c(-c2ccc(-c3cncnc3)cc2)cc2cnc(Nc3ccc(N4CCN(C)CC4)cc3)nc21`: the pIC50 against PAK1 is 6.30 to 7.30; against PAK4 it was at most 5.30; against PAK3, 5.30 to 6.30; on PAK2 (PAK65), 6.30 to 7.30.
For the compound `CCn1c(=O)c(-c2ccc(-c3cccc4ncccc34)cc2)cc2cnc(Nc3ccc(N4CCN(C)CC4)cc3)nc21`, the pIC50 at PAK1 was under 5.30; at PAK4, at most 5.30; against PAK3, under 5.30; against PAK2 (PAK65) it was under 5.30.
Consider `CCn1c(=O)c(-c2ccc(-c3cccs3)s2)cc2cnc(Nc3ccc(N4CCN(C)CC4)cc3)nc21`, for which the pIC50 was under 5.30 at PAK1, at most 5.30 against PAK4, under 5.30 against PAK3 and under 5.30 at PAK2 (PAK65).
Turning to `CCn1c(=O)c(-c2nc(C3CCN(C(C)=O)CC3)sc2C)cc2cnc(Nc3ccc(N4CCN(C)CC4)cc3)nc21`, the negative-log IC50 (pIC50) was under 5.30 on PAK1, at most 5.30 on PAK4, under 5.30 against PAK3 and under 5.30 at PAK2 (PAK65).
Turning to `CCn1c(=O)c(-c2ccc(-c3cncnc3)cc2Cl)cc2cnc(Nc3ccc(C4CN(C)CCO4)cc3)nc21` (stereo not shown), the negative logarithm of the IC50 (pIC50) is over 7.30 against PAK1, at most 5.30 against PAK4, over 7.30 at PAK3 and over 7.30 against PAK2 (PAK65).
For the compound `CCn1c(=O)c(-c2ccc(-c3ncc(C)s3)cc2Cl)cc2cnc(Nc3ccc(N4CCN(C)CC4)cc3)nc21`, the pIC50 at PAK1 is over 7.30; against PAK4, 5.30 to 6.30; against PAK3 it was 6.30 to 7.30; against PAK2 (PAK65), over 7.30.
On to `CC(=O)Nc1ccc(-c2ccc(Cl)c(-c3cc4cnc(Nc5ccc(C6CCN(C)CC6)cc5)nc4n(C)c3=O)c2)cn1`, for which the pIC50 against PAK1 is under 5.30; at PAK4 it was 5.30 to 6.30; against PAK3, under 5.30; against PAK2 (PAK65) it was under 5.30.
Take `CC(=O)Nc1ccnc(-c2ccc(Cl)c(-c3cc4cnc(Nc5ccc(C6CCN(C)CC6)cc5)nc4n(C)c3=O)c2)n1`: the pIC50 against PAK1 is under 5.30; on PAK4, at most 5.30; against PAK3, under 5.30; on PAK2 (PAK65), under 5.30.
Turning to `CC(=O)N(C)c1ccc(-c2ccc(Cl)c(-c3cc4cnc(Nc5ccc(C6CCN(C)CC6)cc5)nc4n(C)c3=O)c2)cn1`, the pIC50 is under 5.30 against PAK1, at most 5.30 against PAK4, under 5.30 against PAK3 and under 5.30 against PAK2 (PAK65).

The pIC50 is the IC50 on a negative log10 scale, so that one unit is a factor of ten. Read a low pIC50 as a high IC50.
